Some results are limits rather than exact numbers.

Test [1] concerns HT-29. The test can be described thus: In vitro antiproliferative effect in […] HT 29 cells. It is filed as functional, cell-based. To be noted: Homo sapiens.
Another test has as its target Choline kinase alpha (Homo sapiens, UniProt P35790). The test can be described thus: Ex vivo inhibitory concentration against human choline kinase.
Test [2] has as its system HT-29. The test can be described thus: Antiproliferative activity against HT 29 cells. The format is functional, cell-based. To be noted: Homo sapiens.

Chain of Choline kinase alpha (P35790 whole entry): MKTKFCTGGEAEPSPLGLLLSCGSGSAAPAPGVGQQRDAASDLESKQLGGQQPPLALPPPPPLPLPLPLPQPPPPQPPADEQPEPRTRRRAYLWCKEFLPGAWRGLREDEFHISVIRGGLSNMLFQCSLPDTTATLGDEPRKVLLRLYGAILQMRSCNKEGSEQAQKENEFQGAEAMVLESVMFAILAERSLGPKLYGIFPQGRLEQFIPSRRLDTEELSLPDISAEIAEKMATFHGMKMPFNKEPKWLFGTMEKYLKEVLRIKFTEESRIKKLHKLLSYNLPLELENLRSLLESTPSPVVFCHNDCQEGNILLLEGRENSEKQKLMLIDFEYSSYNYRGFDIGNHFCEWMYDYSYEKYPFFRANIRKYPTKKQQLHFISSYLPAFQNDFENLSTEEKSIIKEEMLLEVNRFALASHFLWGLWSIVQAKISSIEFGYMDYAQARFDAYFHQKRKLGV

For the compound `Clc1ccc2c(N3CCCC3)cc[n+](Cc3cccc(-c4cccc(C[n+]5ccc(N6CCCC6)c6ccc(Cl)cc65)c4)c3)c2c1`, in the test on HT-29 [1], inhibition was half-maximal at 0.4 µM (IC50).
For `CN(c1ccccc1)c1cc[n+](Cc2cccc(-c3cccc(C[n+]4ccc(N(C)c5ccccc5)c5ccccc54)c3)c2)c2ccccc12`, the half-inhibitory concentration (IC50) came out at 0.4 µM on Choline kinase alpha and 0.8 µM with HT-29 [1].
The corresponding values for `Nc1cc[n+](Cc2cccc(-c3cccc(C[n+]4ccc(N)c5ccc(Cl)cc54)c3)c2)c2cc(Cl)ccc12` are 20.6 µM and 1.9 µM.
The corresponding values for `c1ccc(Nc2cc[n+](Cc3cccc(-c4cccc(C[n+]5ccc(Nc6ccccc6)c6ccccc65)c4)c3)c3ccccc23)cc1` are 1.3 µM and 1.6 µM.
In the case of `CN(c1ccc(Cl)cc1)c1cc[n+](Cc2ccc(-c3ccc(C[n+]4ccc(N(C)c5ccc(Cl)cc5)c5ccc(Cl)cc54)cc3)cc2)c2cc(Cl)ccc12`, the half-maximal inhibitory concentration (IC50) with HT-29 [1] amounted to 1.2 µM.
As to `CN(c1ccccc1)c1cc[n+](Cc2ccc(-c3ccc(C[n+]4ccc(N(C)c5ccccc5)c5ccc(Cl)cc54)cc3)cc2)c2cc(Cl)ccc12`, the figures for the IC50 against Choline kinase alpha and in the test with HT-29 [1] were 11.4 µM and 0.5 µM, respectively.
As to `CN(C)c1cc[n+](Cc2ccc(-c3ccc(C[n+]4ccc(N(C)C)c5ccccc54)cc3)cc2)c2ccccc12`, the values for the IC50 against Choline kinase alpha and in the test on HT-29 [1] were 39.7 µM and 1.7 µM, respectively.
The matching figures for `Cc1c(N)ccc2c(N(C)c3ccccc3)cc[n+](Cc3cccc(-c4cccc(C[n+]5ccc(N(C)c6ccccc6)c6ccc(N)c(C)c65)c4)c3)c12`: 56.8 µM and 3.8 µM.
Take `Nc1cc[n+](Cc2ccc(-c3ccc(C[n+]4ccc(N)c5ccc(Cl)cc54)cc3)cc2)c2cc(Cl)ccc12`: the IC50 stood at 63.3 µM against Choline kinase alpha and 3.2 µM in the test with HT-29 [1].
Regarding `c1ccc(Nc2cc[n+](Cc3ccc(-c4ccc(C[n+]5ccc(Nc6ccccc6)c6ccccc65)cc4)cc3)c3ccccc23)cc1`, the IC50 on Choline kinase alpha turned out to be 17.8 µM; with HT-29 [1] it was 0.7 µM.
Take `CN(c1ccc(Cl)cc1)c1cc[n+](Cc2ccc(CCc3ccc(C[n+]4ccc(N(C)c5ccc(Cl)cc5)c5ccc(Cl)cc54)cc3)cc2)c2cc(Cl)ccc12`: the half-maximal inhibitory concentration (IC50) with HT-29 [1] stood at 0.8 µM.
For `CN(C)c1cc[n+](Cc2ccc(CCc3ccc(C[n+]4ccc(N(C)C)c5ccccc54)cc3)cc2)c2ccccc12`, the IC50 at Choline kinase alpha amounted to 10.2 µM; with HT-29 [1], 0.5 µM.
For `CN(c1ccccc1)c1cc[n+](Cc2ccc(CCc3ccc(C[n+]4ccc(N(C)c5ccccc5)c5ccc(Cl)cc54)cc3)cc2)c2cc(Cl)ccc12`, the IC50 stood at 3.5 µM on Choline kinase alpha and 0.5 µM with HT-29 [1].
In the test on HT-29 [1], `CN(C)c1cc[n+](Cc2cccc(-c3cccc(C[n+]4ccc(N(C)C)c5ccc(Cl)cc54)c3)c2)c2cc(Cl)ccc12` gave a 50% inhibitory concentration (IC50) of 0.7 µM.
On to `Cc1c(N)ccc2c(N(C)c3ccccc3)cc[n+](Cc3ccc(CCc4ccc(C[n+]5ccc(N(C)c6ccccc6)c6ccc(N)c(C)c65)cc4)cc3)c12`, for which the results for the IC50 against Choline kinase alpha and with HT-29 [1] were 133 µM and 7 µM, respectively.
With `Nc1cc[n+](Cc2ccc(CCc3ccc(C[n+]4ccc(N)c5ccccc54)cc3)cc2)c2ccccc12`, the half-inhibitory concentration (IC50) on Choline kinase alpha is 80 µM; with HT-29 [1] it was 2 µM.
For the compound `CN(C)c1cc[n+](Cc2ccc(-c3ccc(C[n+]4ccc(N(C)C)c5ccc(Cl)cc54)cc3)cc2)c2cc(Cl)ccc12`, the figures for the IC50 against Choline kinase alpha and in the test with HT-29 [1] were 20.6 µM and 0.8 µM, respectively.
Take `c1ccc2c(c1)c(N1CCCCCC1)cc[n+]2Cc1ccc(CCc2ccc(C[n+]3ccc(N4CCCCCC4)c4ccccc43)cc2)cc1`: the half-inhibitory concentration (IC50) at Choline kinase alpha was 0.6 µM; with HT-29 [1] it was 0.3 µM.
The matching figures for `c1ccc(Nc2cc[n+](Cc3ccc(CCc4ccc(C[n+]5ccc(Nc6ccccc6)c6ccccc65)cc4)cc3)c3ccccc23)cc1`: 2.3 µM and 0.3 µM.
In the case of `CN(c1ccccc1)c1cc[n+](Cc2ccc(CCc3ccc(C[n+]4ccc(N(C)c5ccccc5)c5ccccc54)cc3)cc2)c2ccccc12`, the results for the 50% inhibitory concentration (IC50) against Choline kinase alpha and with HT-29 [1] were 1.4 µM and 0.7 µM, respectively.
The matching figures for `Cc1c[n+](Cc2ccc(-c3ccc(C[n+]4cc(C)c(N)c5ccccc54)cc3)cc2)c2ccccc2c1N`: over 200 µM and 3.3 µM.
The corresponding values for `Clc1ccc2c(N3CCCC3)cc[n+](Cc3ccc(-c4ccc(C[n+]5ccc(N6CCCC6)c6ccc(Cl)cc65)cc4)cc3)c2c1` are 19.8 µM and 2.4 µM.
The corresponding values for `CN(c1ccccc1)c1cc[n+](Cc2cccc(-c3cccc(C[n+]4ccc(N(C)c5ccccc5)c5ccc(Cl)cc54)c3)c2)c2cc(Cl)ccc12` are 3.1 µM and 1 µM.
Consider `CN(c1ccc(Cl)cc1)c1cc[n+](Cc2cccc(-c3cccc(C[n+]4ccc(N(C)c5ccc(Cl)cc5)c5ccc(Cl)cc54)c3)c2)c2cc(Cl)ccc12`, for which, in the test on HT-29 [1], it took 1.9 µM to reach half-maximal inhibition (IC50).
As for `Cc1c[n+](Cc2cccc(-c3cccc(C[n+]4cc(C)c(N)c5ccccc54)c3)c2)c2ccccc2c1N`, the 50% inhibitory concentration (IC50) at Choline kinase alpha was 11.9 µM; with HT-29 [1], 4.4 µM.
As to `c1ccc2c(c1)c(N1CCCCCC1)cc[n+]2Cc1ccc(-c2ccc(C[n+]3ccc(N4CCCCCC4)c4ccccc43)cc2)cc1`, the 50% inhibitory concentration (IC50) at Choline kinase alpha worked out at 2.2 µM; in the test on HT-29 [1], 0.5 µM.
The matching figures for `Nc1cc[n+](Cc2ccc(-c3ccc(C[n+]4ccc(N)c5ccccc54)cc3)cc2)c2ccccc12`: 81.1 µM and 2.2 µM.
The corresponding values for `Nc1cc[n+](Cc2cccc(-c3cccc(C[n+]4ccc(N)c5ccccc54)c3)c2)c2ccccc12` are 1.2 µM and 1.9 µM.
In the test with HT-29 [1], `Clc1ccc2c(N3CCCC3)cc[n+](Cc3ccc(CCc4ccc(C[n+]5ccc(N6CCCC6)c6ccc(Cl)cc65)cc4)cc3)c2c1` returned an IC50 of 0.2 µM.
Regarding `Cc1c(N)ccc2c(N(C)c3ccc(Cl)cc3)cc[n+](Cc3ccc(-c4ccc(C[n+]5ccc(N(C)c6ccc(Cl)cc6)c6ccc(N)c(C)c65)cc4)cc3)c12`, the concentration for half-maximal inhibition (IC50) on Choline kinase alpha worked out at 46.1 µM; in the test with HT-29 [1], 19.4 µM.
The matching figures for `CN(C)c1cc[n+](Cc2cccc(-c3cccc(C[n+]4ccc(N(C)C)c5ccccc54)c3)c2)c2ccccc12`: 4.4 µM and 1.6 µM.
The corresponding values for `Nc1cc[n+](Cc2ccc(CCc3ccc(C[n+]4ccc(N)c5ccc(Cl)cc54)cc3)cc2)c2cc(Cl)ccc12` are over 200 µM and 1.9 µM.
As for `CN(c1ccc(Cl)cc1)c1cc[n+](Cc2ccc(CCc3ccc(C[n+]4ccc(N(C)c5ccc(Cl)cc5)c5ccccc54)cc3)cc2)c2ccccc12`, in the test on HT-29 [1], the concentration for half-maximal inhibition (IC50) was 0.7 µM.
The same measure, in the same setting: next, `CN(c1ccc(Cl)cc1)c1cc[n+](Cc2cccc(-c3cccc(C[n+]4ccc(N(C)c5ccc(Cl)cc5)c5ccccc54)c3)c2)c2ccccc12`: 1.5 µM.
With `CN(C)c1cc[n+](Cc2ccc(CCc3ccc(C[n+]4ccc(N(C)C)c5ccc(Cl)cc54)cc3)cc2)c2cc(Cl)ccc12`, the 50% inhibitory concentration (IC50) against Choline kinase alpha stood at 9 µM; in the test on HT-29 [2] it was 0.45 µM; with HT-29 [1], 0.27 µM.
With `Cc1c(N)ccc2c(N(C)c3ccc(Cl)cc3)cc[n+](Cc3ccc(CCc4ccc(C[n+]5ccc(N(C)c6ccc(Cl)cc6)c6ccc(N)c(C)c65)cc4)cc3)c12`, the values for the half-inhibitory concentration (IC50) at Choline kinase alpha and in the test on HT-29 [1] were 57.5 µM and 19.5 µM, respectively.
The corresponding values for `c1cc(C[n+]2ccc(N3CCCCCC3)c3ccccc32)cc(-c2cccc(C[n+]3ccc(N4CCCCCC4)c4ccccc43)c2)c1` are 0.5 µM and 0.5 µM.
The corresponding values for `Cc1c(N)ccc2c(N(C)c3ccccc3)cc[n+](Cc3ccc(-c4ccc(C[n+]5ccc(N(C)c6ccccc6)c6ccc(N)c(C)c65)cc4)cc3)c12` are 96.1 µM and 25.2 µM.
The matching figures for `Cc1c(N)ccc2c(N(C)c3ccc(Cl)cc3)cc[n+](Cc3cccc(-c4cccc(C[n+]5ccc(N(C)c6ccc(Cl)cc6)c6ccc(N)c(C)c65)c4)c3)c12`: 147 µM and 33 µM.
In the case of `CN(c1ccccc1)c1cc[n+](Cc2ccc(-c3ccc(C[n+]4ccc(N(C)c5ccccc5)c5ccccc54)cc3)cc2)c2ccccc12`, the IC50 on Choline kinase alpha is 3 µM; in the test with HT-29 [1], 0.6 µM.
In turn, `CN(c1ccc(Cl)cc1)c1cc[n+](Cc2ccc(-c3ccc(C[n+]4ccc(N(C)c5ccc(Cl)cc5)c5ccccc54)cc3)cc2)c2ccccc12` [RSM-932A] showed a half-inhibitory concentration (IC50) with HT-29 [1] of 1.2 µM.

The term IC50 denotes the point on the concentration scale where inhibition reaches its midpoint.

Values taken from ChEMBL document CHEMBL1144422, “Symmetrical bis-quinolinium compounds: new human choline kinase inhibitors with antiproliferative activity against the HT-29 cell line” (J Med Chem, 2005).
